Source: the NIST ThermoML archive (doi:10.1016/j.jct.2016.10.031)

Assay: molar heat capacity at constant pressure
Settings: 101.33 kPa, Small (less than 1 g) adiabatic calorimetry

CC(C)(C)c1ccc(Oc2ccc([N+](=O)[O-])cc2)cc1 [1-(tert-butyl)-4-(4-nitrophenoxy)benzene]
molar heat capacity at constant pressure [J/K/mol]
Settings	Crystal	Glass
5 K	1.355	–
7.47 K	4.099	–
7.73 K	4.357	–
7.99 K	4.806	–
8.25 K	4.93	–
8.5 K	5.379	–
8.76 K	5.679	–
9 K	6.111	–
9.25 K	6.543	–
9.5 K	6.718	–
9.74 K	6.934	–
9.98 K	7.616	–
10 K	7.483	–
10.29 K	7.94	–
10.67 K	8.647	–
11.05 K	9.237	–
11.43 K	9.903	–
11.82 K	10.72	–
12.19 K	11.55	–
12.56 K	12.15	–
12.94 K	12.7	–
13.31 K	13.57	–
13.67 K	14.33	–
14.04 K	15.21	–
14.41 K	15.49	–
14.78 K	16.59	–
15 K	16.88	–
15.14 K	17.38	–
15.51 K	17.73	–
15.87 K	18.62	–
16.23 K	19.3	–
16.59 K	20.01	–
16.95 K	20.59	–
17.31 K	21.22	–
17.67 K	21.96	–
18.02 K	23.17	–
18.38 K	23.47	–
18.74 K	23.92	–
19.09 K	24.86	–
19.44 K	25.53	–
19.8 K	26.14	–
20 K	26.69	–
20.15 K	27.16	–
20.82 K	28.34	–
21.6 K	29.77	–
22.37 K	31.32	–
23.15 K	32.68	–
23.93 K	34.2	–
24.7 K	35.79	–
25 K	36.33	–
25.47 K	37.61	–
26.25 K	38.45	–
27.02 K	40.22	–
27.78 K	41.32	–
28.55 K	43.04	–
29.31 K	44.42	–
30 K	45.73	–
30.07 K	45.76	–
30.84 K	47.58	–
31.6 K	48.75	–
32.37 K	49.72	–
33.14 K	51.08	–
33.9 K	52.67	–
34.66 K	54.05	–
35 K	54.54	–
35.42 K	55.3	–
36.18 K	57.11	–
36.94 K	57.85	–
37.7 K	58.97	–
38.45 K	60.6	–
39.21 K	61.49	–
39.97 K	62.88	–
40 K	63.11	–
40.73 K	64.39	–
41.49 K	65.82	–
42.25 K	66.47	–
43.01 K	68.18	–
43.76 K	69.21	–
44.52 K	70.63	–
45 K	71.17	–
45.29 K	71.91	–
46.05 K	72.64	–
46.81 K	73.61	–
47.56 K	75.02	–
48.32 K	75.74	–
49.08 K	77.04	–
49.84 K	77.52	–
50 K	77.91	–
50.59 K	79.05	–
51.35 K	79.22	–
52.11 K	79.8	–
52.86 K	81.65	–
53.62 K	82.43	–
54.38 K	83.39	–
55.13 K	84.31	–
55.89 K	84.81	–
56.64 K	85.14	–
57.4 K	86.3	–
58.15 K	87.8	–
58.9 K	88.13	–
59.65 K	89.46	–
60 K	89.55	–
60.41 K	89.8	–
61.16 K	91.13	–
61.91 K	92.37	–
62.66 K	92.46	–
63.41 K	94.04	–
64.16 K	94.87	–
64.91 K	94.78	–
65.66 K	96.12	–
66.41 K	96.12	–
67.16 K	97.94	–
67.91 K	97.94	–
68.65 K	99.44	–
69.4 K	100.27	–
70 K	101.19	–
70.15 K	102.77	–
71.05 K	102.93	–
72.11 K	103.85	–
73.17 K	104.93	–
74.23 K	106.18	–
75.29 K	108.42	–
76.35 K	108.75	–
77.41 K	110.08	–
78.47 K	112	–
79.3 K	112.16	–
79.53 K	113.49	–
79.87 K	–	115.9
80 K	113.16	–
80.1 K	112.83	–
80.58 K	114.66	–
80.67 K	–	116.65
80.9 K	113.82	–
81.47 K	–	117.4
81.64 K	116.15	–
81.71 K	114.66	–
82.27 K	–	118.31
82.51 K	115.4	–
82.7 K	116.82	–
83.08 K	–	119.23
83.31 K	116.49	–
83.75 K	117.48	–
83.88 K	–	120.06
84.11 K	117.32	–
84.68 K	–	120.98
84.92 K	118.07	–
85.48 K	–	121.97
85.72 K	119.06	–
86.29 K	–	122.89
86.52 K	119.98	–
87.09 K	–	123.8
87.32 K	120.81	–
87.89 K	–	124.55
88.13 K	121.72	–
88.7 K	–	125.63
88.93 K	122.72	–
89.5 K	–	126.55
89.73 K	123.64	–
90 K	123.8	–
90.3 K	–	127.29
90.54 K	124.63	–
91.1 K	–	128.38
91.34 K	125.55	–
91.91 K	–	129.29
92.15 K	126.55	–
92.71 K	–	130.12
92.95 K	127.29	–
93.52 K	–	131.12
93.75 K	128.13	–
94.32 K	–	132.03
94.56 K	129.21	–
95.13 K	–	132.87
95.36 K	130.12	–
95.93 K	–	133.7
96.17 K	131.04	–
96.73 K	–	134.69
96.97 K	132.03	–
97.54 K	–	135.44
97.77 K	132.87	–
98.34 K	–	136.44
98.58 K	133.78	–
99.14 K	–	137.35
99.38 K	134.61	–
99.95 K	–	138.35
100 K	135.53	–
100.19 K	135.53	–
100.75 K	–	139.43
100.99 K	136.44	–
101.55 K	–	140.18
101.79 K	137.27	–
102.35 K	–	141.01
102.59 K	138.27	–
103.16 K	–	142.01
103.4 K	139.18	–
103.96 K	–	142.76
104.2 K	140.1	–
104.76 K	–	143.67
105 K	141.18	–
105.56 K	–	144.67
105.8 K	141.93	–
106.36 K	–	145.42
106.6 K	142.84	–
107.16 K	–	146.17
107.4 K	143.67	–
107.96 K	–	147.25
108.21 K	144.51	–
108.77 K	–	148.25
109.01 K	145.5	–
109.57 K	–	149
109.81 K	146.25	–
110 K	146.42	–
110.37 K	–	149.83
110.61 K	147.17	–
111.17 K	–	150.74
111.42 K	148.08	–
111.97 K	–	151.66
112.22 K	149	–
112.78 K	–	152.74
113.02 K	149.74	–
113.58 K	–	153.57
113.82 K	150.57	–
114.38 K	–	154.32
114.63 K	151.57	–
115.18 K	–	155.23
115.43 K	152.57	–
115.99 K	–	156.23
116.23 K	153.24	–
116.79 K	–	156.89
117.04 K	154.32	–
117.59 K	–	157.81
117.84 K	155.15	–
118.4 K	–	158.72
118.64 K	155.98	–
119.2 K	–	159.8
119.45 K	156.81	–
120 K	157.31	160.64
120.25 K	157.89	–
120.81 K	–	161.47
121.06 K	158.56	–
121.61 K	–	162.22
121.86 K	159.64	–
122.41 K	–	163.13
122.66 K	160.3	–
123.21 K	–	164.21
123.47 K	161.22	–
124.02 K	–	164.88
124.27 K	162.13	–
124.82 K	–	165.96
125.07 K	162.96	–
125.62 K	–	166.54
125.87 K	163.79	–
126.42 K	–	167.37
126.68 K	164.71	–
127.23 K	–	168.2
127.48 K	165.54	–
128.03 K	–	169.2
128.28 K	166.54	–
128.83 K	–	170.03
129.09 K	167.45	–
129.63 K	–	170.95
129.89 K	168.2	–
130 K	168.2	–
130.43 K	–	171.94
130.69 K	169.03	–
131.24 K	–	172.53
131.49 K	170.03	–
132.04 K	–	173.27
132.3 K	170.86	–
132.84 K	–	174.35
133.1 K	171.69	–
133.64 K	–	175.19
133.9 K	172.77	–
134.44 K	–	176.02
134.71 K	173.61	–
135.25 K	–	176.93
135.51 K	174.44	–
136.05 K	–	177.85
136.31 K	175.1	–
136.85 K	–	178.76
137.11 K	176.02	–
137.65 K	–	179.76
137.92 K	176.85	–
138.45 K	–	180.67
138.72 K	177.93	–
139.25 K	–	181.5
139.52 K	178.68	–
140 K	179.01	–
140.06 K	–	182.42
140.32 K	179.43	–
140.86 K	–	183.25
141.12 K	180.26	–
141.66 K	–	184
141.93 K	181.34	–
142.46 K	–	184.83
142.72 K	181.92	–
143.25 K	–	185.83
143.53 K	182.83	–
144.06 K	–	186.66
144.33 K	183.83	–
144.86 K	–	187.57
145.13 K	184.75	–
145.66 K	–	188.41
145.93 K	185.66	–
146.46 K	–	189.32
146.73 K	186.49	–
147.26 K	–	190.15
